Assay results from patent US7851497B2 (priority 2004, dated 2010).
Where a name gives a salt, the structure may show the parent alone. Read-outs that look alike come from different tables or passages of the source.

Tests used:
Type in all cases: in vivo
cucumber downy mildew [1] = assay: Test on curative effect against cucumber downy mildew
Description: Cucumber (cultivar: Suyo) was cultivated in a polyethylene pot having a diameter of 7.5 cm, and when it reached two-leaf stage, the cucumber was sprayed and inoculated with a suspension of spores of cucumber downy mildew and kept in a humidified chamber at 20° C. for 4 hours. Then, after drying the crop plant, a drug solution having the respective test compounds adjusted to the predetermined concentrations, was applied in a sufficient amount (20 ml) by means of a spray gun. After the sprayed solution dried, it was kept in a thermostatic chamber at 20° C. for 7 days, whereupon the lesion area ratio in the first leaf was investigated, and the control value was obtained by the following formula. Here, the test was carried out in double series.
(§1) The lesion area in non-treated area was obtained in the same manner as in the treated area except that instead of the drug solution, water was applied by means of a spray gun. Control value=(b−a)/b×100 where a is the lesion area ratio in treated area, and b is the lesion area ratio in non-treated area.
(§2) Further, a theoretical value can be calculated by the Colby formula. If the experimental value is higher than the theoretical value by the Colby formula, the fungicidal composition for agricultural or horticultural use of the present invention has a synergistic effect for controlling the plant disease. In this context, the theoretical values by the Colby formula are also shown in brackets ( ) in Table 2.

tomato late blight = tested on: tomato late blight
cucumber downy mildew [2] = assay: Test on preventive effect against cucumber downy mildew
Description: Cucumber (cultivar: Suyo) was cultivated in a polyethylene pot having a diameter of 7.5 cm, and when the cucumber reached two-leaf stage, a drug solution having the respective test compounds adjusted to the predetermined concentrations, was applied in a sufficient amount (20 ml) by means of a spray gun. After the applied solution dried, the cucumber was sprayed and inoculated with a suspension of spores of cucumber downy mildew and kept in a humidified chamber at 20° C. for 4 hours. Thereafter, the cucumber was kept in a thermostatic chamber at 20° C. for 7 days, whereupon the lesion area ratio in the first leaf was investigated, and the control value was obtained by the following formula. Here, the test was carried out in double series.
as §1, with “lesion area ratio in non-treated” for “lesion area in non-treated”
as §2, with “1.” for “2.”

[3] = propamocarb hydrochloride 1000 ppm alone (Compound No. 1 0 ppm)
[4] = propamocarb hydrochloride 2000 ppm alone (Compound No. 1 0 ppm)
[5] = propamocarb hydrochloride 4000 ppm alone (Compound No. 1 0 ppm)

Compound	Control value in the test on curative effect against cucumber downy mildew (cucumber downy mildew [1]; Compound No. 1 125 ppm alone (propamocarb hydrochloride 0 ppm))	Control value in the test on curative effect against cucumber downy mildew (cucumber downy mildew [1]; Compound No. 1 500 ppm alone (propamocarb hydrochloride 0 ppm))	Control value in the test on preventive effect against tomato late blight (tomato late blight; Compound No. 1 0.5 ppm alone (propamocarb hydrochloride 0 ppm))	Control value in the test on preventive effect against cucumber downy mildew (cucumber downy mildew [2]; Compound No. 1 0.03 ppm alone (propamocarb hydrochloride 0 ppm))	Control value in the test on preventive effect against cucumber downy mildew (cucumber downy mildew [2]; Compound No. 1 0.13 ppm alone (propamocarb hydrochloride 0 ppm))	Control value in the test on curative effect against cucumber downy mildew (cucumber downy mildew [1]; [3])	Control value in the test on curative effect against cucumber downy mildew (cucumber downy mildew [1]; [4])	Control value in the test on curative effect against cucumber downy mildew (cucumber downy mildew [1]; [5])	Control value in the test on preventive effect against tomato late blight (tomato late blight; [3])	Control value in the test on preventive effect against tomato late blight (tomato late blight; [4])	Control value in the test on preventive effect against tomato late blight (tomato late blight; [5])	Control value in the test on preventive effect against cucumber downy mildew (cucumber downy mildew [2]; [3])	Control value in the test on preventive effect against cucumber downy mildew (cucumber downy mildew [2]; [4])	Control value in the test on preventive effect against cucumber downy mildew (cucumber downy mildew [2]; [5])
Cc1ccc(-c2c(Cl)nc(C#N)n2S(=O)(=O)N(C)C)cc1 [Compound No. 1, 4-Chloro-2-cyano-1-dimethylsulfamoyl-5-(4-methylphenyl)imidazole]	0	90	67	0	90									
CCCOC(=O)NCCCN(C)C [propamocarb hydrochloride]						10	20	30	0	0	0	0	10	30
